From patent US12662489B2 (Sitryx Therapeutics Limited, priority 2023, dated 2026)

Key:
[1] = molecular target: T1, MTHFD1 recombinant human enzyme (Homo sapiens, UniProt P11586); assay: MTHFD1 inhibition assay (NAD(P)H-Glo luminescence); settings: MTHFD1 IC50, recombinant human enzyme 200 nM, NADP, band
T1 sequence (P11586 2-291 limits assumed): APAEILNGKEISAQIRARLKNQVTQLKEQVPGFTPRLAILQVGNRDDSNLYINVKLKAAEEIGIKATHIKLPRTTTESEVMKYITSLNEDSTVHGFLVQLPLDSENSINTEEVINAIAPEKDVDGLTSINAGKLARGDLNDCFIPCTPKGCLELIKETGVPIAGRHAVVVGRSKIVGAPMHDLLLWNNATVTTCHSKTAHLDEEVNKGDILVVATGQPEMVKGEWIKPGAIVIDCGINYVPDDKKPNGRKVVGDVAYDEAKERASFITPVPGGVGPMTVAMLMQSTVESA

[2] = molecular target: T2, MTHFD2 recombinant human enzyme (Homo sapiens, UniProt P13995); assay: MTHFD2 inhibition assay (NAD(P)H-Glo luminescence); settings: for MTHFD1/MTHFD2 IC50 ratio: selectivity of MTHFD2 inhibition over MTHFD1, band
T2 sequence (P13995 36-350): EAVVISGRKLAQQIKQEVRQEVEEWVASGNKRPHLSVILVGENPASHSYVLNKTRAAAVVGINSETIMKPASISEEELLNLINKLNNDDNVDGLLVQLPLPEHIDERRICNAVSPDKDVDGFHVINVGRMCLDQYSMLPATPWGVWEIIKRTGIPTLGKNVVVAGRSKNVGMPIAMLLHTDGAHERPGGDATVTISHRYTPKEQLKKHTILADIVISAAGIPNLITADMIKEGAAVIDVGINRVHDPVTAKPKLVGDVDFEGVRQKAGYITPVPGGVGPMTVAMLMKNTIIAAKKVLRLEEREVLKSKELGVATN

| IC50 [1] [nM] | IC50 [2] [nM] | MTHFD1/MTHFD2 IC50 ratio [2] | SMILES |
| --- | --- | --- | --- |
| 1000 to 5000 | 10 to 100 | J (>30) | COC[C@H]1CN(c2cc(C)c3c4c(c(=O)oc3c2C)CN(C(=O)c2cc(OC(C)C)c(C(=O)NS(=O)(=O)N3CCCC3)c(C(F)(F)F)c2)CC4)CCN1C [Example 161, (R)-2-isopropoxy-4-(8-(3-(methoxymethyl)-4-methylpiperazin-1-yl)-7,10-dimethyl-5-oxo-1,3,4,5-tetrahydro-2H-chromeno[3,4-c]pyridine-3-carbonyl)-N-(pyrrolidin-1-ylsulfonyl)-6-(trifluoromethyl)benzamide] |
| 100 to 1000 | 10 to 100 | H (>9.0 to 30) | COC[C@H]1CN(c2cc(C)c3c4c(c(=O)oc3c2C)CN(C(=O)c2ccc(C(=O)NS(=O)(=O)N3CCCCC3)c(OC)c2F)CC4)CCN1C [Example 239] |
| 10 to 100 | 1 to 10 | F (<3) | COC[C@H]1CN(c2cc(C)c3c4c(c(=O)oc3c2C)CN(C(=O)c2ccc(C(=O)NS(=O)(=O)N3CCCC3)c(OC3CC3)c2F)CC4)CCN1C [Example 212, (R)-2-cyclopropoxy-3-fluoro-4-(8-(3-(methoxymethyl)-4-methylpiperazin-1-yl)-7,10-dimethyl-5-oxo-1,3,4,5-tetrahydro-2H-chromeno[3,4-c]pyridine-3-carbonyl)-N-(pyrrolidin-1-ylsulfonyl)benzamide] |
| 100 to 1000 | 10 to 100 | J (>30) | COC[C@H]1CN(c2cc(C)c3c4c(c(=O)oc3c2C)CN(C(=O)c2cc(N(C)C)c(C(=O)NS(=O)(=O)N3CCC[C@@H](OC)C3)cc2F)CC4)CCN1C [Example 286, 2-(dimethylamino)-5-fluoro-4-(8-((R)-3-(methoxymethyl)-4-methylpiperazin-1-yl)-7,10-dimethyl-5-oxo-1,3,4,5-tetrahydro-2H-chromeno[3,4-c]pyridine-3-carbonyl)-N-(((R)-3-methoxypiperidin-1-yl)sulfonyl)benzamide] |
| 1 to 10 | 1 to 10 | F (<3) | COC[C@H]1CN(c2cc(C)c3c4c(c(=O)oc3c2C)CN(C(=O)c2ccc(C(=O)NS(=O)(=O)N(C)C)c(OC3CCC(F)(F)CC3)c2F)CC4)CCN1C [Example 85, (R)-2-((4,4-difluorocyclohexyl)oxy)-N-(N,N-dimethylsulfamoyl)-3-fluoro-4-(8-(3-(methoxymethyl)-4-methylpiperazin-1-yl)-7,10-dimethyl-5-oxo-1,3,4,5-tetrahydro-2H-chromeno[3,4-c]pyridine-3-carbonyl)benzamide] |
| 10 to 100 | 10 to 100 | F (<3) | COC[C@H]1CN(c2cc(C)c3c4c(c(=O)oc3c2C)CN(C(=O)c2ccc(C(=O)NS(=O)(=O)N3CCCC3)c(OC3CCC(F)(F)CC3)c2)CC4)CCN1C [Example 99, (R)-2-((4,4-difluorocyclohexyl)oxy)-4-(8-(3-(methoxymethyl)-4-methylpiperazin-1-yl)-7,10-dimethyl-5-oxo-1,3,4,5-tetrahydro-2H-chromeno[3,4-c]pyridine-3-carbonyl)-N-(pyrrolidin-1-ylsulfonyl)benzamide] |
| 100 to 1000 | 10 to 100 | H (>9.0 to 30) | COC[C@H]1CN(c2cc(C)c3c4c(c(=O)oc3c2C)CN(C(=O)c2cc(C)c(C(=O)NS(=O)(=O)N(C)C)c(N3CCCC3)c2)CC4)CCN1C [Example 106, (R)-N-(N,N-dimethylsulfamoyl)-4-(8-(3-(methoxymethyl)-4-methylpiperazin-1-yl)-7,10-dimethyl-5-oxo-1,3,4,5-tetrahydro-2H-chromeno[3,4-c]pyridine-3-carbonyl)-2-methyl-6-(pyrrolidin-1-yl)benzamide] |
| 1 to 10 | 1 to 10 | F (<3) | COC[C@H]1CN(c2cc(C)c3c4c(c(=O)oc3c2C)CN(C(=O)c2ccc(C(=O)NS(=O)(=O)N(C)C)c(N3CCC3)c2)CC4)CCN1C [Example 89, (R)-2-(azetidin-1-yl)-N-(N,N-dimethylsulfamoyl)-4-(8-(3-(methoxymethyl)-4-methylpiperazin-1-yl)-7,10-dimethyl-5-oxo-1,3,4,5-tetrahydro-2H-chromeno[3,4-c]pyridine-3-carbonyl)benzamide] |
| 1000 to 5000 | 100 to 1000 | H (>9.0 to 30) | CCOc1cc(C(=O)N2CCc3c(c(=O)oc4c(C)c(N5CCN(C)[C@@H](COC)C5)cc(C)c34)C2)cc(C(F)(F)F)c1C(=O)NS(=O)(=O)N1CCCC1 [Example 160, (R)-2-ethoxy-4-(8-(3-(methoxymethyl)-4-methylpiperazin-1-yl)-7,10-dimethyl-5-oxo-1,3,4,5-tetrahydro-2H-chromeno[3,4-c]pyridine-3-carbonyl)-N-(pyrrolidin-1-ylsulfonyl)-6-(trifluoromethyl)benzamide] |

More lines, now with the values behind:

| SMILES | IC50 [1] [nM] | IC50 [2] [nM] | MTHFD1/MTHFD2 IC50 ratio [2] |
| --- | --- | --- | --- |
| CCOc1cc(C(=O)N2CCc3c(c(=O)oc4c(C)c(N5CCN(C)[C@@H](COC)C5)cc(Cl)c34)C2)c(F)cc1C(=O)NS(=O)(=O)N1CC2CCC(C1)O2 [Example 301, N-((8-oxa-3-azabicyclo[3.2.1]octan-3-yl)sulfonyl)-4-(10-chloro-8-((R)-3-(methoxymethyl)-4-methylpiperazin-1-yl)-7-methyl-5-oxo-1,3,4,5-tetrahydro-2H-chromeno[3,4-c]pyridine-3-carbonyl)-2-ethoxy-5-fluorobenzamide] | 100 to 1000 | 10 to 100 | J (>30) |
| CCN1CCN(c2ccc3c4c(c(=O)oc3c2C)CN(C(=O)c2ccc(C(=O)NS(=O)(=O)N3CCCC3)c(OC3CCC3)c2F)CC4)C[C@@H]1COC [Example 172, (R)-2-cyclobutoxy-4-(8-(4-ethyl-3-(methoxymethyl)piperazin-1-yl)-7-methyl-5-oxo-1,3,4,5-tetrahydro-2H-chromeno[3,4-c]pyridine-3-carbonyl)-3-fluoro-N-(pyrrolidin-1-ylsulfonyl)benzamide] | 10 to 100 | 10 to 100 | F (<3) |
| CCOc1c(C(=O)NS(=O)(=O)N2CC3CC3C2)ccc(C(=O)N2CCc3c(c(=O)oc4c(Cl)c(N5CCN(C)[C@@H](COC)C5)ccc34)C2)c1F (stereo partly drawn) [Example 208, N-((3-azabicyclo[3.1.0]hexan-3-yl)sulfonyl)-4-(7-chloro-8-((R)-3-(methoxymethyl)-4-methylpiperazin-1-yl)-5-oxo-1,3,4,5-tetrahydro-2H-chromeno[3,4-c]pyridine-3-carbonyl)-2-ethoxy-3-fluorobenzamide] | 10 to 100 | 10 to 100 | F (<3) |
| COC[C@H]1CN(c2ccc3c4c(c(=O)oc3c2C)CN(C(=O)c2cc(Cl)c(C(=O)NS(=O)(=O)N(C)C)c(N3C5CCC3CC5)c2)CC4)CCN1C [Example 80, (R)-2-(7-azabicyclo[2.2.1]heptan-7-yl)-6-chloro-N-(N,N-dimethylsulfamoyl)-4-(8-(3-(methoxymethyl)-4-methylpiperazin-1-yl)-7-methyl-5-oxo-1,3,4,5-tetrahydro-2H-chromeno[3,4-c]pyridine-3-carbonyl)benzamide] | 10 to 100 | 10 to 100 | G (^ 3 to 9.0) |
| Cc1c(N2CCN(C)[C@@H](COC(C)C)C2)ccc2c3c(c(=O)oc12)CN(C(=O)c1ccc(C(=O)NS(=O)(=O)N2CCCC2)c(OC2CCC2)c1F)CC3 [Example 192, (R)-2-cyclobutoxy-3-fluoro-4-(8-(3-(isopropoxymethyl)-4-methylpiperazin-1-yl)-7-methyl-5-oxo-1,3,4,5-tetrahydro-2H-chromeno[3,4-c]pyridine-3-carbonyl)-N-(pyrrolidin-1-ylsulfonyl)benzamide] | 100 to 1000 | 100 to 1000 | F (<3) |
| COC[C@H]1CN(c2ccc3c4c(c(=O)oc3c2C)CN(C(=O)c2cc(N(C)C)c(C(=O)NS(=O)(=O)N3CCC5(CC3)CC5)cc2F)CC4)CCN1C [Example 189, (R)-N-((6-azaspiro[2.5]octan-6-yl)sulfonyl)-2-(dimethylamino)-5-fluoro-4-(8-(3-(methoxymethyl)-4-methylpiperazin-1-yl)-7-methyl-5-oxo-1,3,4,5-tetrahydro-2H-chromeno[3,4-c]pyridine-3-carbonyl)benzamide] | 1000 to 5000 | 100 to 1000 | H (>9.0 to 30) |
| COC[C@H]1CN(c2cc(C)c3c4c(c(=O)oc3c2C)CN(C(=O)c2cc(OC3CCC3)c(C(=O)NS(=O)(=O)N3CCCC3)c(C(F)(F)F)c2)CC4)CCN1C [Example 132, (R)-2-cyclobutoxy-4-(8-(3-(methoxymethyl)-4-methylpiperazin-1-yl)-7,10-dimethyl-5-oxo-1,3,4,5-tetrahydro-2H-chromeno[3,4-c]pyridine-3-carbonyl)-N-(pyrrolidin-1-ylsulfonyl)-6-(trifluoromethyl)benzamide] | 100 to 1000 | 10 to 100 | H (>9.0 to 30) |
